{"source": "PubChem BioAssay AID1963975", "about": "(Molecular Pharmacology Branch, DTP, NCI, 2024);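 further: spheroids exposed to agents for 7 days before viability read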;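 on viability, T/C: 100% = DMSO vehicle treated spheroids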", "test_system": "624824-186-R-J2-PDC multicell spheroids, viability", "test": "Anticancer human tumor 624824-186-R-J2-PDC patient-derived colon adenocarcinoma cell line growth inhibition [PI3K]", "settings": "for IC50: curve of first compound; for viability, T/C: stronger effect = lower value", "description": "Combinatorial screen of targeted agents with the PI3K inhibitors inavolisib, alpelisib, duvelisib, and copanlisib in multi-cell type tumor spheroids\nA high-throughput screen of multi-cell type tumor spheroids was designed to identify active combinations of targeted small molecules and PI3K pathway inhibitors. Complex spheroids include a stromal component modeled by human endothelial cells (HUVEC) and fibroblasts modeled by human mesenchymal stem cells (MSCs). The concentration ranges selected for each drug and investigational agent were based upon clinically achievable concentrations if the clinical Cmax of the agent was known.\nCompounds. The drugs and investigational agents: inavolisib (NSC800729), alpelisib (NSC765974), duvelisib (NSC772469), copanlisib (NSC816437), ipatasertib (NSC767898), afuresertib (NSC778305), talazoparib (NSC767125), sapanisertib (NSC764658), selumetinib (NSC741078), tovorafenib (DAY101, NSC766906), vemurafenib (NSC761431), ravoxertinib (NSC781343), sotorasib (NSC818433), MRTX1133 (NSC 836407), abemaciclib (NSC 768073), palbociclib (NSC758247), venetoclax (NSC 766270), SY5609 (NSC837396), enzalutamide (NSC755605), and darolutamide (NSC825331), were obtained from the National Cancer Institute (NCI) Developmental Therapeutics Program Chemical Repository. The FDA-approved anticancer drug set is available from the NCI Developmental Therapeutics Program. […] The stock solutions were prepared in dimethyl sulfoxide (DMSO, Sigma-Aldrich, St. Louis, MO, cat. D2650) at 800-fold the tested concentration and stored at -70 degrees C prior to their use. All drugs and investigational agents were tested over a range starting from a high concentration at or near the clinical Cmax and decreasing in half-log increments. If the clinical Cmax for an agent had not been determined, the highest concentration tested was 10 microM.\nCell Culture. All cells were maintained in an incubator at 37 degrees C and 5% CO2 with 95% humidity. The PDC lines were cultured according to standard operating procedures established by the NCI PDMR (https://pdmr.cancer.gov/sops/default.htm). All PDCs were thawed and cultured in Matrigel-coated flasks prepared with a working solution of 1X Ham's F-12 nutrient mix, without supplementation (Invitrogen, Waltham, MA, cat. 11765054), 100 U/mL penicillin-streptomycin (Invitrogen, cat. 15140122), and 2.5% Matrigel (Corning Inc., Corning, NY, cat. 354248) for the first three passages. The 354836-022-R-J1-PDC, 475296-252-R-J1-PDC, and 997726-040-R-J2-PDC lines were cultured in 6A media, which includes advanced DMEM/F-12 (Thermo Fisher Scientific, cat. 12634028), 10 mM HEPES (Thermo Fisher Scientific, cat. 15630080), 1X GlutaMAX supplement (Thermo Fisher Scientific, cat. 35050061), 0.1 mg/mL primocin (InvivoGen, San Diego, CA, cat. ant-pm-2), 10% defined fetal bovine serum, heat inactivated (HyClone Laboratories Inc., Logan, UT, cat. SH30070.03HI), 50% L-WRN conditioned media (ATCC, cat. CRL-3276), 1.25 mM N-Acetyl-L-cysteine (Sigma-Aldrich, cat. A9165), 10 mM nicotinamide (Sigma-Aldrich, cat. N0636), 1X B-27 supplement (Thermo Fisher Scientific, cat. 17504044), 1X N-2 supplement (Thermo Fisher Scientific, cat. 17502048), and 10 microM Y-27632 dihydrochloride (Tocris Bioscience, Bristol, United Kingdom, cat. 1254). The 624824-186-R-J2-PDC line was cultured in 6C/Colon 1B media, which includes all 6A media components plus 50 ng/mL human EGF recombinant protein (Thermo Fisher Scientific, cat. PHG0311). […]"}
{"smiles": "Cn1cnc2c(F)c(Nc3ccc(Br)cc3Cl)c(C(=O)NOCCO)cc21", "note": "+ CC(Nc1ccc2c(c1)OCCn1cc(N3C(=O)OCC3C(F)F)nc1-2)C(N)=O", "values": [{"measurement": "IC50", "setting": "second compound 0.00316 µM", "result": "> 3", "unit": "µM"}, {"measurement": "IC50", "setting": "second compound 0.01 µM", "result": "> 3", "unit": "µM"}, {"measurement": "IC50", "setting": "second compound 0.0316 µM", "result": "> 3", "unit": "µM"}, {"measurement": "IC50", "setting": "second compound 0.1 µM", "result": "> 3", "unit": "µM"}, {"measurement": "IC50", "setting": "second compound 0.316 µM", "result": 2.93, "unit": "µM"}, {"measurement": "IC50", "setting": "second compound 1 µM", "result": 0.669, "unit": "µM"}, {"measurement": "viability, T/C", "setting": "second compound 0.00316 µM, first compound 0.00949 µM", "result": 89.3, "unit": "%"}, {"measurement": "viability, T/C", "setting": "second compound 0.00316 µM, first compound 0.03 µM", "result": 76.8, "unit": "%"}, {"measurement": "viability, T/C", "setting": "second compound 0.00316 µM, first compound 0.0949 µM", "result": 76, "unit": "%"}, {"measurement": "viability, T/C", "setting": "second compound 0.00316 µM, first compound 0.3 µM", "result": 74.8, "unit": "%"}, {"measurement": "viability, T/C", "setting": "second compound 0.00316 µM, first compound 0.949 µM", "result": 87.8, "unit": "%"}, {"measurement": "viability, T/C", "setting": "second compound 0.00316 µM, first compound 3 µM", "result": 78.7, "unit": "%"}, {"measurement": "viability, T/C", "setting": "second compound 0.01 µM, first compound 0.00949 µM", "result": 87.2, "unit": "%"}, {"measurement": "viability, T/C", "setting": "second compound 0.01 µM, first compound 0.03 µM", "result": 71.2, "unit": "%"}, {"measurement": "viability, T/C", "setting": "second compound 0.01 µM, first compound 0.0949 µM", "result": 81.9, "unit": "%"}, {"measurement": "viability, T/C", "setting": "second compound 0.01 µM, first compound 0.3 µM", "result": 70.9, "unit": "%"}, {"measurement": "viability, T/C", "setting": "second compound 0.01 µM, first compound 0.949 µM", "result": 89.6, "unit": "%"}, {"measurement": "viability, T/C", "setting": "second compound 0.01 µM, first compound 3 µM", "result": 81.8, "unit": "%"}, {"measurement": "viability, T/C", "setting": "second compound 0.0316 µM, first compound 0.00949 µM", "result": 72.1, "unit": "%"}, {"measurement": "viability, T/C", "setting": "second compound 0.0316 µM, first compound 0.03 µM", "result": 66.2, "unit": "%"}, {"measurement": "viability, T/C", "setting": "second compound 0.0316 µM, first compound 0.0949 µM", "result": 75.7, "unit": "%"}, {"measurement": "viability, T/C", "setting": "second compound 0.0316 µM, first compound 0.3 µM", "result": 77.4, "unit": "%"}, {"measurement": "viability, T/C", "setting": "second compound 0.0316 µM, first compound 0.949 µM", "result": 85.8, "unit": "%"}, {"measurement": "viability, T/C", "setting": "second compound 0.0316 µM, first compound 3 µM", "result": 67.1, "unit": "%"}, {"measurement": "viability, T/C", "setting": "second compound 0.1 µM, first compound 0.00949 µM", "result": 83.3, "unit": "%"}, {"measurement": "viability, T/C", "setting": "second compound 0.1 µM, first compound 0.03 µM", "result": 68.2, "unit": "%"}, {"measurement": "viability, T/C", "setting": "second compound 0.1 µM, first compound 0.0949 µM", "result": 61.1, "unit": "%"}, {"measurement": "viability, T/C", "setting": "second compound 0.1 µM, first compound 0.3 µM", "result": 84.2, "unit": "%"}, {"measurement": "viability, T/C", "setting": "second compound 0.1 µM, first compound 0.949 µM", "result": 67.9, "unit": "%"}, {"measurement": "viability, T/C", "setting": "second compound 0.1 µM, first compound 3 µM", "result": 78.8, "unit": "%"}, {"measurement": "viability, T/C", "setting": "second compound 0.316 µM, first compound 0.00949 µM", "result": 102, "unit": "%"}, {"measurement": "viability, T/C", "setting": "second compound 0.316 µM, first compound 0.03 µM", "result": 68.1, "unit": "%"}, {"measurement": "viability, T/C", "setting": "second compound 0.316 µM, first compound 0.0949 µM", "result": 74, "unit": "%"}, {"measurement": "viability, T/C", "setting": "second compound 0.316 µM, first compound 0.3 µM", "result": 68.6, "unit": "%"}, {"measurement": "viability, T/C", "setting": "second compound 0.316 µM, first compound 0.949 µM", "result": 60.2, "unit": "%"}, {"measurement": "viability, T/C", "setting": "second compound 0.316 µM, first compound 3 µM", "result": 50.1, "unit": "%"}, {"measurement": "viability, T/C", "setting": "second compound 1 µM, first compound 0.00949 µM", "result": 68.2, "unit": "%"}, {"measurement": "viability, T/C", "setting": "second compound 1 µM, first compound 0.03 µM", "result": 68.8, "unit": "%"}, {"measurement": "viability, T/C", "setting": "second compound 1 µM, first compound 0.0949 µM", "result": 66.3, "unit": "%"}, {"measurement": "viability, T/C", "setting": "second compound 1 µM, first compound 0.3 µM", "result": 59.1, "unit": "%"}, {"measurement": "viability, T/C", "setting": "second compound 1 µM, first compound 0.949 µM", "result": 46, "unit": "%"}, {"measurement": "viability, T/C", "setting": "second compound 1 µM, first compound 3 µM", "result": 29.5, "unit": "%"}]}
